± gives the expanded uncertainty stated by the source.
Experiment: xn = mol fraction of the nth substance listed
Conditions: 101 kPa, Liquid, Vibrating tube method

N#Cc1ccccc1 [benzonitrile] + CCCCCCCC
mass density [kg/m3]
Conditions | 283.15 K | 288.15 K | 293.15 K | 298.15 K | 303.15 K | 308.15 K | 313.15 K | 318.15 K
x1 = 0.022 | 714.94 ± 0.22 | 710.93 ± 0.22 | 706.9 ± 0.22 | 702.86 ± 0.23 | 698.79 ± 0.23 | 694.71 ± 0.23 | 690.6 ± 0.23 | 686.47 ± 0.23
x1 = 0.0576 | 721.95 ± 0.22 | 717.92 ± 0.22 | 713.87 ± 0.22 | 709.81 ± 0.23 | 705.72 ± 0.23 | 701.62 ± 0.23 | 697.49 ± 0.23 | 693.34 ± 0.23
x1 = 0.102 | 731.07 ± 0.22 | 727.01 ± 0.22 | 722.94 ± 0.22 | 718.85 ± 0.23 | 714.74 ± 0.23 | 710.61 ± 0.23 | 706.47 ± 0.23 | 702.29 ± 0.23
x1 = 0.1999 | 752.43 ± 0.23 | 748.32 ± 0.23 | 744.2 ± 0.23 | 740.06 ± 0.23 | 735.9 ± 0.23 | 731.73 ± 0.23 | 727.54 ± 0.23 | 723.33 ± 0.23
x1 = 0.2998 | 776.16 ± 0.23 | 772.01 ± 0.23 | 767.84 ± 0.24 | 763.66 ± 0.24 | 759.46 ± 0.24 | 755.25 ± 0.24 | 751.02 ± 0.24 | 746.78 ± 0.24
x1 = 0.4001 | 802.02 ± 0.25 | 797.83 ± 0.25 | 793.63 ± 0.25 | 789.41 ± 0.25 | 785.18 ± 0.25 | 780.93 ± 0.25 | 776.67 ± 0.25 | 772.39 ± 0.25
x1 = 0.4637 | 819.57 ± 0.26 | 815.35 ± 0.26 | 811.12 ± 0.26 | 806.89 ± 0.26 | 802.63 ± 0.26 | 798.37 ± 0.27 | 794.09 ± 0.27 | 789.79 ± 0.27
x1 = 0.4997 | 829.9 ± 0.27 | 825.68 ± 0.27 | 821.44 ± 0.27 | 817.19 ± 0.28 | 812.93 ± 0.28 | 808.65 ± 0.28 | 804.35 ± 0.28 | 800.04 ± 0.28
x1 = 0.5004 | 830.12 ± 0.27 | 825.9 ± 0.27 | 821.66 ± 0.27 | 817.41 ± 0.28 | 813.14 ± 0.28 | 808.86 ± 0.28 | 804.56 ± 0.28 | 800.25 ± 0.28
x1 = 0.6001 | 860.7 ± 0.27 | 856.42 ± 0.27 | 852.14 ± 0.27 | 847.85 ± 0.27 | 843.55 ± 0.27 | 839.23 ± 0.27 | 834.9 ± 0.27 | 830.56 ± 0.27
x1 = 0.7001 | 894.21 ± 0.27 | 889.88 ± 0.27 | 885.55 ± 0.27 | 881.22 ± 0.27 | 876.87 ± 0.27 | 872.51 ± 0.27 | 868.15 ± 0.27 | 863.78 ± 0.27
x1 = 0.7998 | 930.65 ± 0.27 | 926.27 ± 0.27 | 921.9 ± 0.27 | 917.52 ± 0.27 | 913.13 ± 0.27 | 908.74 ± 0.27 | 904.34 ± 0.27 | 899.94 ± 0.27
x1 = 0.9001 | 970.69 ± 0.28 | 966.28 ± 0.28 | 961.87 ± 0.28 | 957.46 ± 0.28 | 953.05 ± 0.28 | 948.63 ± 0.28 | 944.21 ± 0.28 | 939.78 ± 0.28
x1 = 0.95 | 991.86 ± 0.29 | 987.44 ± 0.29 | 983.01 ± 0.29 | 978.59 ± 0.29 | 974.17 ± 0.29 | 969.74 ± 0.29 | 965.31 ± 0.29 | 960.88 ± 0.29
x1 = 0.9801 | 1005.05 ± 0.3 | 1000.62 ± 0.29 | 996.19 ± 0.29 | 991.77 ± 0.29 | 987.34 ± 0.29 | 982.91 ± 0.29 | 978.48 ± 0.29 | 974.05 ± 0.29
x1 = 1 | 1013.99 ± 0.31 | 1009.55 ± 0.31 | 1005.12 ± 0.3 | 1000.69 ± 0.3 | 996.26 ± 0.3 | 991.83 ± 0.3 | 987.4 ± 0.3 | 982.96 ± 0.3

N#Cc1ccccc1 [benzonitrile] + CCCCCCCCC
mass density [kg/m3]
Conditions | 285.15 K | 288.15 K | 293.15 K | 298.15 K | 303.15 K | 308.15 K | 313.15 K
x1 = 0.0239 | 728.45 ± 0.31 | 726.13 ± 0.31 | 722.24 ± 0.32 | 718.34 ± 0.32 | 714.42 ± 0.32 | 710.49 ± 0.32 | 706.54 ± 0.32
x1 = 0.0499 | 732.81 ± 0.31 | 730.47 ± 0.31 | 726.57 ± 0.31 | 722.65 ± 0.32 | 718.72 ± 0.32 | 714.77 ± 0.32 | 710.81 ± 0.32
x1 = 0.0989 | 741.4 ± 0.31 | 739.05 ± 0.31 | 735.11 ± 0.31 | 731.16 ± 0.31 | 727.2 ± 0.32 | 723.22 ± 0.32 | 719.23 ± 0.32
x1 = 0.1985 | 760.34 ± 0.31 | 757.95 ± 0.31 | 753.95 ± 0.31 | 749.94 ± 0.31 | 745.93 ± 0.31 | 741.89 ± 0.32 | 737.84 ± 0.32
x1 = 0.2542 | 771.77 ± 0.31 | 769.36 ± 0.31 | 765.34 ± 0.31 | 761.3 ± 0.31 | 757.25 ± 0.32 | 753.19 ± 0.32 | 749.11 ± 0.32
x1 = 0.2998 | 781.58 ± 0.32 | 779.16 ± 0.32 | 775.11 ± 0.32 | 771.05 ± 0.32 | 766.97 ± 0.32 | 762.89 ± 0.32 | 758.79 ± 0.32
x1 = 0.4005 | 804.92 ± 0.32 | 802.47 ± 0.32 | 798.37 ± 0.32 | 794.26 ± 0.32 | 790.14 ± 0.32 | 786 ± 0.32 | 781.85 ± 0.32
x1 = 0.4966 | 829.64 ± 0.33 | 827.16 ± 0.33 | 823.01 ± 0.33 | 818.85 ± 0.33 | 814.68 ± 0.33 | 810.5 ± 0.33 | 806.31 ± 0.33
x1 = 0.5998 | 859.12 ± 0.33 | 856.6 ± 0.33 | 852.4 ± 0.33 | 848.19 ± 0.33 | 843.96 ± 0.33 | 839.73 ± 0.33 | 835.48 ± 0.33
x1 = 0.6996 | 891.01 ± 0.32 | 888.45 ± 0.32 | 884.18 ± 0.32 | 879.91 ± 0.32 | 875.63 ± 0.32 | 871.34 ± 0.32 | 867.05 ± 0.32
x1 = 0.7999 | 926.93 ± 0.31 | 924.34 ± 0.31 | 920 ± 0.31 | 915.67 ± 0.31 | 911.33 ± 0.31 | 906.99 ± 0.31 | 902.64 ± 0.31
x1 = 0.9001 | 967.24 ± 0.3 | 964.61 ± 0.3 | 960.22 ± 0.3 | 955.83 ± 0.3 | 951.44 ± 0.3 | 947.05 ± 0.3 | 942.65 ± 0.3
x1 = 0.9497 | 988.96 ± 0.3 | 986.32 ± 0.3 | 981.91 ± 0.3 | 977.49 ± 0.3 | 973.08 ± 0.3 | 968.67 ± 0.3 | 964.25 ± 0.3
x1 = 0.9805 | 1003.05 ± 0.3 | 1000.4 ± 0.3 | 995.97 ± 0.3 | 991.55 ± 0.3 | 987.13 ± 0.3 | 982.7 ± 0.3 | 978.27 ± 0.3
x1 = 1 | 1012.21 ± 0.31 | 1009.55 ± 0.31 | 1005.12 ± 0.3 | 1000.69 ± 0.3 | 996.26 ± 0.3 | 991.83 ± 0.3 | 987.4 ± 0.3
